Data on four compounds can be found in patent publication US20230255975A1, “METHODS FOR TREATING CANCER WITH COMBINATION THERAPIES” (Celgene Corporation, priority 2020, published 2023).

For one experiment, the system named is Mc-CAR cell line. Put plainly: Proliferation assay. Type of experiment: cell-based. To be noted: McCAR; 1q amp normal; BRD4/BET inhibition; read-out: IC50. How it is done:
(§1) Proliferation and viability assays: Cell growth curves were determined by monitoring the viability of cells with Trypan blue exclusion on a Vi-Cell-XR (Becton Dickinson, Franklin Lakes, N.J., USA). Proliferation assays were performed in triplicate at least three times (n=3) using (3H)-thymidine incorporation. All data were plotted and analyzed using GraphPad Prism 7 (GraphPad Software, La Jolla, Calif., USA) software, represented as the mean with an error determined as ±s.d.
(§2) Proliferation and viability assay. Cell growth curves were determined by monitoring the viability of cells with Trypan blue exclusion on a Vi-Cell-XR (Becton Dickinson, Franklin Lakes, N.J., USA). Cell lines were plated in triplicate in 96-well round-bottom plates with the indicated drug concentrations or knockdown cells. Proliferation assays were performed in triplicate at least three times (n=3) using either the WST-1 tetrazolium salt (Roche Applied Science) reagent used according to the manufacturer's specifications or by (3H)-thymidine incorporation as previously described (Bjorklund et al., Blood Cancer Journal 5, e354, 2015). All data were plotted and analyzed using GraphPad Prism 7 (GraphPad Software, La Jolla, Calif., USA) software, represented as the mean with an error determined as ±s.d.

A further experiment has as its system H929 cell line. Put plainly: Proliferation assay. Type of experiment: cell-based. Particulars: Homo sapiens, NCI-H929, 1q amp 3-4×, BRD4/BET inhibition, read-out: IC50. How it is done: as §1, §2
For another experiment, the system named is KMS11 cell line. Put plainly: Proliferation assay. Type of experiment: cell-based. To be noted: Homo sapiens, KMS-11, 1q amp 6-8×, BRD4/BET inhibition. On the procedure:
as §1

A further experiment relates to U266 cell line. Put plainly: Proliferation assay. Type of experiment: cell-based. Particulars: Homo sapiens, U-266, 1q amp 3×, BRD4/BET inhibition, read-out: IC50. How it is done:
as §1

The subject of a further experiment is MM1.S cell line. Put plainly: Proliferation assay. Type of experiment: cell-based. Particulars: Homo sapiens, 1q amp 3×, BRD4/BET inhibition. How it is done: as §1
The subject of the next experiment is DF15/PR cell line. Put plainly: Proliferation assay. Particulars: 1q amp 3×, BRD4/BET inhibition. Type of experiment: cell-based. On the procedure: as §1
Experiment [1] relates to CKS1B and E2F2 in H929 cell line. Put plainly: Immunoblot of CKS1B and E2F2 after BET inhibitors. Type of experiment: cell-based. To be noted: FIG. 10B. An excerpt: (§3) Effects of BRD4 inhibitors on CKS1B and E2F2 and their target genes. CKS1B and E2F2 have been enlisted as super-enhancer (SE) associated genes in MM (Loven, J., et al., Cell, 2013, 153(2): p. 320-34). In order to pharmacologically target CKS1B and E2F2, the BET inhibitors JQ1 and Compound A were utilized in MDMS8-like and H929 cell lines. […] BET inhibitors also promoted a decrease in Cereblon substrates, Ikaros, Aiolos and c-Myc levels. Further, an increase in the levels of P27 was observed, which is a negative regulator of CKS1B signaling. Immunofluorescence staining was performed to analyze the localization and expression of CKS1B and E2F2 in response to JQ1 and confirmed the decrease in their nuclear expression in MDMS8-like cells (data not shown). Since BET inhibitors mediate their changes mainly at transcript levels, transcript levels of CKS1B and E2F2 were analyzed in response to BET inhibitors. In both MDMS8-like and H929 cell lines, BET inhibitors promoted a decrease in transcript levels of CKS1B and E2F2 (FIG. 10C, FIG. 10D, FIG. 10E, and FIG. 10F). […] To ascertain the SE mediated regulation of CKS1B and E2F2, CDK7 inhibitors targeting SE-associated complexes in MM cell lines were utilized.
(In general: A western blot detects proteins with antibodies after separation by electrophoresis.)

The subject of experiment [2] is CKS1B and E2F2 in MDMS8-like (DF15PR) cell line. Put plainly: Immunoblot of CKS1B and E2F2 after BET inhibitors. Type of experiment: cell-based. Particulars: FIG. 10A.
Text: as §3

A further experiment has as its system several MM cell lines. In words: Proliferation of MM cell lines with CDK7 inhibitor. Type of experiment: cell-based. To be noted: data not shown. How it is done:
as §1
Effects of BRD4 inhibitors on CKS1B and E2F2 and their target genes. CKS1B and E2F2 have been enlisted as super-enhancer (SE) associated genes in MM (Loven, J., et al., Cell, 2013, 153(2): p. 320-34). In order to pharmacologically target CKS1B and E2F2, the BET inhibitors JQ1 and Compound A were utilized in MDMS8-like and H929 cell lines. […] BET inhibitors also promoted a decrease in Cereblon substrates, Ikaros, Aiolos and c-Myc levels. Further, an increase in the levels of P27 was observed, which is a negative regulator of CKS1B signaling. Immunofluorescence staining was performed to analyze the localization and expression of CKS1B and E2F2 in response to JQ1 and confirmed the decrease in their nuclear expression in MDMS8-like cells (data not shown). Since BET inhibitors mediate their changes mainly at transcript levels, transcript levels of CKS1B and E2F2 were analyzed in response to BET inhibitors. […]

Experiment [3] deals with acute myeloid leukemia (AML). To be noted: administered alone; cited from earlier work.

Usually IC50 stands for the concentration needed to halve the response being measured. As to `Cn1cc(-c2cc(S(C)(=O)=O)ccc2OCC2CC2)c2ccccc2c1=O` [Compound A, 4-[2-(cyclopropylmethoxy)-5-(methanesulfonyl)phenyl]-2-methylisoquinolin-1(2H)-one], the IC50 with Mc-CAR cell line was determined as 93.4 nM; with H929 cell line, 54.1 nM; in the experiment with KMS11 cell line, 40.3 nM; with U266 cell line, 33.9 nM; with MM1.S cell line it was 28.2 nM; with DF15/PR cell line, 35.9 nM. Moreover, the “protein levels of CKS1B and E2F2” value in experiment [1] was “dose and time dependent decrease”; in experiment [2] it was “dose and time dependent decrease”.

Regarding `Cc1sc2c(c1C)C(c1ccc(Cl)cc1)=N[C@@H](CC(=O)OC(C)(C)C)c1nnc(C)n1-2` [JQ1, (S)-tert-butyl 2-(4-(4-chlorophenyl)-2,3,9-trimethyl-6H-thieno[3,2-f][1,2,4]triazolo[4,3-a][1,4]diazepin-6-yl)acetate], the concentration for half-maximal inhibition (IC50) stood at 83.5 nM in the experiment with Mc-CAR cell line; 51.7 nM in the experiment with H929 cell line; 36.2 nM with KMS11 cell line; 14.8 nM in the experiment with U266 cell line; 15.2 nM in the experiment with MM1.S cell line; 37.8 nM in the experiment with DF15/PR cell line. Also, the “protein levels of CKS1B and E2F2” value in experiment [1] was “dose and time dependent decrease”; in [2], “dose and time dependent decrease”.

`CN(C)C/C=C/C(=O)Nc1ccc(C(=O)Nc2cccc(Nc3ncc(Cl)c(-c4c[nH]c5ccccc45)n3)c2)cc1` [THZ1]: in the experiment with several MM cell lines, the proliferation result was “potent decrease in proliferation”.

On to “CT-011: anti-PD-1 antibody, a humanized antibody”, for which, in experiment [3], the “response in treating acute myeloid leukemia (AML) at relapse” value is recorded as “failed to show response”.
